# Results reported in US20200147039A1, “COMPOUNDS USEFUL IN INHIBITING HUMAN TREFOIL FACTOR 3” (NATIONAL UNIVERSITY OF SINGAPORE, priority 2017, published 2020).
# Legend:
# AsPC-1 = experiment: AlamarBlue cell viability assay, AsPC-1; assay type: cell-based; details: Homo sapiens, ASPC1, Pancreatic
# Procedure: (§1) The human immortalized mammary epithelial cell lines, MCF10A, and MCF12A; and immortalized hepatocellular epithelial cell line, LO2 were obtained from the American Type Culture Collection (ATCC, Rockville, Md.) and were cultured as per ATCC propagation instructions. MC cell lines, MCF7, T47D, BT474, BT20, MDA-MB-361, MDA-MB-436, MDA-MB-468, and MDA-MB-231; endometrial carcinoma cell lines, Ishikawa, ECC1, RL95-2 and AN3; hepatocellular carcinoma cell lines, Hep3B, H2P, and H2M; colon carcinoma cell lines, DLD-1, and Caco-2; and prostate carcinoma cell lines, PC3, LNCaP, and DU145 were obtained from the American Type Culture Collection (ATCC, Rockville, Md.). Pancreatic carcinoma cell lines, AsPC-1 and BxPC-3; Lung carcinoma cell lines, HCC-827, NCI-H1975, HCC-4006, PC-14, and NCI-H1299; and Thyroid carcinoma cell lines HTH83, CAL62, T238, and OGK-M were obtained from Prof. H. Phillip Koeffler's laboratory at The Cancer Science Institute of Singapore, National University of Singapore (NUS). Gastric carcinoma cell lines, AGS, MKN-28, MKN-45, and A2-528 were obtained from Prof. […]
# (§2) In table 9 IC50 values of compound 43 compound library in several cancer cell lines are tabulated, using an AlamarBlue® cell viability assay as previously described in Pandey V et al., Breast Cancer Res. 2014; 16(5):429. Statistical analysis was assessed by using GraphPad Prism5. […]
# PC3 = experiment: AlamarBlue cell viability assay, PC3; assay type: cell-based; details: Homo sapiens, PC-3, Prostate
# Procedure: as §1, §2
# MCF-7 = experiment: AlamarBlue cell viability assay, MCF7; assay type: cell-based, human
# From the text: (A) Inhibitory concentration 50% (IC50) values for compound 43 in the MC cell lines are tabulated, using an AlamarBlue™ cell viability assay as previously described in Pandey V et al., Breast Cancer Res. 2014; 16(5):429. (B) Measured dose-dependent manner effect of compound 43 on the viability of MC cells (left-side, TFF3-high and right, TFF3-low) using AlamarBlue™ viability assay as previously described (ibid). (C) Apoptotic cell death of mammary carcinoma cell lines measured after treatment with 10 μM compound 43 using flow cytometry analysis at 24 hour as described previously in Keerthy H K et al., PloS one. 2014; 9(9):e107118. Annexin V-FITC staining is indicated on the X-axis and PI staining on the Y-axis. […] Acquisition of Annexin V and PI data were represented as percentage (%) in each quadrant. Note: CM, conditioned media; MCF10A and MCF12A, non-transformed immortalized-mammary epithelial cell line. Points are mean of triplicate experiments; bars, ±SD. Statistical significance was assessed by using an unpaired two-tailed Student's t test (P<0.05 was considered as significant) using GraphPad Prism5. Columns are mean of triplicate experiments; bars, ±SD. **P<0.001, *P<0.05.
# The human immortalized mammary epithelial cell lines, MCF10A, and MCF12A; and immortalized hepatocellular epithelial cell line, LO2 were obtained from the American Type Culture Collection (ATCC, Rockville, Md.) and were cultured as per ATCC propagation instructions. MC cell lines, MCF7, T47D, BT474, BT20, MDA-MB-361, MDA-MB-436, MDA-MB-468, and MDA-MB-231; endometrial carcinoma cell lines, Ishikawa, ECC1, RL95-2 and AN3; hepatocellular carcinoma cell lines, Hep3B, H2P, and H2M; colon carcinoma cell lines, DLD-1, and Caco-2; and prostate carcinoma cell lines, PC3, LNCaP, and DU145 were obtained from the American Type Culture Collection (ATCC, Rockville, Md.). Pancreatic carcinoma cell lines, AsPC-1 and BxPC-3; Lung carcinoma cell lines, HCC-827, NCI-H1975, HCC-4006, PC-14, and NCI-H1299; and Thyroid carcinoma cell lines HTH83, CAL62, T238, and OGK-M were obtained from Prof. H. Phillip Koeffler's laboratory at The Cancer Science Institute of Singapore, National University of Singapore (NUS). Gastric carcinoma cell lines, AGS, MKN-28, MKN-45, and A2-528 were obtained from Prof. Yoshiaki Ito's laboratory at The Cancer Science Institute of Singapore, NUS. All cell lines were cultured as per ATCC propagation instructions.
# The above synthesised compounds were initially evaluated against a range of carcinoma cells using an AlamarBlue™ cell viability assay (using the protocol discussed above). The tested compounds were generally efficacious at reducing the viability of various carcinoma cells compared to vehicle (DMSO) treated cells. Table 8 provides selected IC50 data for certain of the compounds synthesised herein against MCF-7.
# In table 9 IC50 values of compound 43 compound library in several cancer cell lines are tabulated, using an AlamarBlue® cell viability assay as previously described in Pandey V et al., Breast Cancer Res. 2014; 16(5):429. Statistical analysis was assessed by using GraphPad Prism5. Note: NV, no value.
# CAL62 = experiment: AlamarBlue cell viability assay, CAL62; assay type: cell-based; details: Homo sapiens, CAL-62, Thyroid
# Procedure: as §1, §2
# BT474 = experiment: qPCR analysis of mRNA levels of genes associated with oncogenic progression, BT474; assay type: cell-based, human; details: BT474, 10 μM
# Procedure: Total RNA was isolated from cells using TRIzol Plus RNA Purification system as previously described in Pandey V et al., Endocrinology. 2010; 151(3):909-920. qPCR assays were performed as previously described in Pandey V et al., Endocrinology. 2010; 151(3):909-920; and Pandey V et al., Endocrinology. 2008; 149(8):3909-3919. Gene expression analysis was performed as previously described in Pandey V et al., Endocrinology. 2010; 151(3):909-920; and Pandey V et al., Endocrinology. 2008; 149(8):3909-3919.
smiles,measurement,setting,value
"Cc1cc(-c2ccc(C3C(C#N)=C(N)Oc4c3c(=O)oc3ccccc43)cc2)cnc1F (stereo not shown) [Compound 43, 2-Amino-4-(4-(6-fluoro-5-methylpyridin-3-yl)phenyl)-5-oxo-4H,5H-pyrano[3,2-c]chromene-3-carbonitrile]",IC50,AsPC-1,4.41 µM
same,IC50,PC3,0.68 µM
same,IC50,"MCF-7; Homo sapiens, MCF7, MCF-7, AlamarBlue cell viability (Table 8)",3.21 µM
same,IC50,"MCF-7; Homo sapiens, MCF7, Mammary, MCF7",3.21 µM
same,IC50,"MCF-7; MCF-7, AlamarBlue cell viability (Table 8)",4.51 µM
same,IC50,CAL62,33.1 µM
same,"APAF1 mRNA, Fold change relative to vehicle control",BT474,1.27 fold
same,"ATM mRNA, Fold change relative to vehicle control",BT474,0.80 fold
same,"BAD mRNA, Fold change relative to vehicle control",BT474,0.04 fold
same,"BAK1 mRNA, Fold change relative to vehicle control",BT474,1.92 fold
same,"BAX mRNA, Fold change relative to vehicle control",BT474,21.55 fold
same,"BCL2L1 mRNA, Fold change relative to vehicle control",BT474,0.05 fold
same,"BCL2 mRNA, Fold change relative to vehicle control",BT474,0.02 fold
same,"BCLAF1 mRNA, Fold change relative to vehicle control",BT474,1.26 fold
same,"BRCA1 mRNA, Fold change relative to vehicle control",BT474,0.47 fold
same,"CASP7 mRNA, Fold change relative to vehicle control",BT474,103.76 fold
same,"CCND1 mRNA, Fold change relative to vehicle control",BT474,0.04 fold
same,"CDC25A mRNA, Fold change relative to vehicle control",BT474,0.15 fold
same,"CDK2 mRNA, Fold change relative to vehicle control",BT474,1.05 fold
same,"CDK4 mRNA, Fold change relative to vehicle control",BT474,0.66 fold
same,"CDKN1A mRNA, Fold change relative to vehicle control",BT474,27.15 fold
same,"CDKN1B mRNA, Fold change relative to vehicle control",BT474,0.14 fold
same,"CDKN2A mRNA, Fold change relative to vehicle control",BT474,1.43 fold
same,"CFLAR mRNA, Fold change relative to vehicle control",BT474,9.08 fold
same,"CHEK2 mRNA, Fold change relative to vehicle control",BT474,0.85 fold
same,"Cyclin E1 mRNA, Fold change relative to vehicle control",BT474,0.08 fold
same,"E2F1 mRNA, Fold change relative to vehicle control",BT474,0.51 fold
same,"GZMA mRNA, Fold change relative to vehicle control",BT474,3.66 fold
same,"HTATIP2 mRNA, Fold change relative to vehicle control",BT474,6.64 fold
same,"MDM2 mRNA, Fold change relative to vehicle control",BT474,0.99 fold
same,"RB1 mRNA, Fold change relative to vehicle control",BT474,0.86 fold
same,"S100A4 mRNA, Fold change relative to vehicle control",BT474,4.80 fold
same,"TERT mRNA, Fold change relative to vehicle control",BT474,0.08 fold
same,"TNFRSF1A mRNA, Fold change relative to vehicle control",BT474,35.64 fold
same,"TNFRSF10B mRNA, Fold change relative to vehicle control",BT474,9.22 fold
same,"TNFRSF25 mRNA, Fold change relative to vehicle control",BT474,7.11 fold
same,"TP53 mRNA, Fold change relative to vehicle control",BT474,459.09 fold
